Measurements published in patent US10407425B2, “Indazole inhibitors of the Wnt signal pathway and therapeutic uses thereof” (Samumed, LLC, priority 2012, dated 2019).

Tested on: Wnt activity
Assay: Wnt activity reporter assay (SP5 promoter firefly luciferase in SW480 cells)
Type: cell-based
Conditions: Homo sapiens; SW480 cells bearing SP5 promoter luciferase reporter; 24 h after compound addition; read-out: Wnt inhibition

IC50 [nM] | Compound
5 | CC(C)CC(=O)Nc1cncc(-c2ccc3[nH]nc(-c4nc5c(-c6cc(F)cc(CNS(C)(=O)=O)c6)cncc5[nH]4)c3c2)c1 [Compound 373, N-(5-(3-(7-(3-Fluoro-5-(methylsulfonamidomethyl)phenyl)-3H-imidazo[4,5-c]pyridin-2-yl)-1H-indazol-5-yl)pyridin-3-yl)-3-methylbutanamide]
0.1 | CC(C)CC(=O)Nc1cncc(-c2ccc3[nH]nc(-c4nc5c(-c6cccs6)cncc5[nH]4)c3c2)c1 [Compound 397, 3-Methyl-N-(5-(3-(7-(thiophen-2-yl)-3H-imidazo[4,5-c]pyridin-2-yl)-1H-indazol-5-yl)pyridin-3-yl)butanamide]
